Consider one compound from US20060111258A1, “Solid N-acylalanine or a salt thereof” (AJINOMOTO CO., INC., priority 2003, published 2006).

Data set [1] is described as follows: Evaluation of moisture absorbability during preservation (automatic vapor absorption measurement). In kind it is physicochemical. The conditions noted are these: average equilibrated moisture at humidity 70% RH, measurement temperature 25° C. The method, then:
2. Evaluation of Moisture Absorbability During Preservation: The moisture absorbability was measured under the following measurement conditions and using an automatic vapor absorption measurement apparatus “BELSORP18” manufactured by BELL JAPAN, INC. Measurement conditions: X air thermostatic tank temperature: 50° C.; X measurement temperature: 25° C.; X MAX intake pressure: 0.9×Ps (Ps: saturated vapor pressure at measurement temperature); X MIN exhaust pressure: 0.1×Ps (Ps: saturated vapor pressure at measurement temperature); and X equilibration time: 5 min. Evaluation: Average equilibrated moisture of less than 5% at humidity 70% RH is ⊙, not less than 5% to less than 10% is ◯, not less than 10% to less than 15% is A, not less than 15% is x.

Data set [2] in a line: Evaluation of caking during preservation. The conditions noted are these: solid N-acylalanine salt; powder 25 g under 770 g spindle, 50° C., 24 hours, visual. In kind it is physicochemical. From the text:
3. Evaluation of Caking During Preservation […] […] 6. Evaluation of Caking During Preservation: The measurement apparatus and measurement conditions were the same as in the aforementioned 3.

As to `CCCCCCCCCCCC(=O)NC(C)C(=O)[O-].[K+]` (racemic) [Example 1, lauroyl-DL-alanine potassium salt], in data set [1], the “moisture absorbability during preservation” value is “⊚”. Besides, in data set [2], the caking during preservation result is recorded as “⊚”.
